According to ChEMBL document CHEMBL6092201, “Discovery of cyanoguanidine derivatives as biased μ-opioid receptor agonists” (2024):
Calls of active or inactive are those of the source.

What was measured:
Type in all cases: functional
[1] = biological target: Mu-type opioid receptor (Homo sapiens) (UniProt P35372); experiment: Agonist activity at MOR (unknown origin) assessed as cAMP accumulation at 0.5 nM relative to control
[2] = biological target: Mu-type opioid receptor (Homo sapiens) (UniProt P35372); experiment: Agonist activity at MOR (unknown origin) assessed as beta-arrestin2 recruitment at 1 uM incubated for 90 to 180 mins by chemiluminescence based microplate reader assay relative to control; conditions: time 90-180 min
[3] = biological target: Mu-type opioid receptor (Homo sapiens) (UniProt P35372); experiment: Agonist activity at MOR (unknown origin) assessed as beta-arrestin2 recruitment at 0.1 uM incubated for 90 to 180 mins by chemiluminescence based microplate reader assay relative to control; conditions: time 90-180 min
[4] = biological target: Mu-type opioid receptor (Homo sapiens) (UniProt P35372); experiment: Agonist activity at MOR (unknown origin) assessed as beta-arrestin2 recruitment at 10 uM incubated for 90 to 180 mins by chemiluminescence based microplate reader assay relative to control; conditions: time 90-180 min
[5] = biological target: Mu-type opioid receptor (Homo sapiens) (UniProt P35372); experiment: Agonist activity at MOR (unknown origin) assessed as beta-arrestin2 recruitment at 50 uM incubated for 90 to 180 mins by chemiluminescence based microplate reader assay; conditions: time 90-180 min
[6] = tested on: Mus musculus; experiment: Analgesic activity in Kunming mouse assessed as increase in pain threshold at 10 mg/kg, po (reference value: 0.13 +/- 5.20 sec)
[7] = biological target: Mu-type opioid receptor (Homo sapiens) (UniProt P35372); experiment: Agonist activity at MOR (unknown origin) assessed as cAMP accumulation at 50 nM relative to control

Sequence of Mu-type opioid receptor (Homo sapiens) (P35372 whole entry): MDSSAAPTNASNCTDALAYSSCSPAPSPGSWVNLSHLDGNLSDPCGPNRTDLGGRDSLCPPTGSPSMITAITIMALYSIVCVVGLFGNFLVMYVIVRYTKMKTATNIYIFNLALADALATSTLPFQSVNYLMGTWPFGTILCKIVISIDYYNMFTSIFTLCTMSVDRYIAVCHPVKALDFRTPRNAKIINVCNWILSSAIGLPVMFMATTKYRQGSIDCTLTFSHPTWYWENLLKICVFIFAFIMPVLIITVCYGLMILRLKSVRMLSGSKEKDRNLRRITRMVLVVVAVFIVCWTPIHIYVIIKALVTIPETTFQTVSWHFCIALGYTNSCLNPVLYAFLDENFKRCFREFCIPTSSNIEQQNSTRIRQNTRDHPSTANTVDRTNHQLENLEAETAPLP

| SMILES | Activity [1] | Activity [2] | Activity [3] | Activity [4] | Activity [5] | Time [6] | Activity [7] |
| --- | --- | --- | --- | --- | --- | --- | --- |
| CC(Cc1c[nH]c2ccccc12)N/C(=N\C#N)NC[C@H](Cc1ccccc1)N(C)C (stereo partly specified) | 11.1% | -0.9% | -0.9% | -0.7% | inactive | 11.63 s | 17.7% |
| CN(C)[C@H](CN/C(=N/C#N)NCCc1cccc(F)c1)Cc1ccccc1 | 7.4% | -0.3% | -0.7% | 4.8% | inactive | 8.86 s | 14.4% |
| COc1ccccc1N/C(=N\C#N)NC[C@H](Cc1ccc(O)cc1)N(C)C | 25.5% | -1% | -1.2% | -1% | inactive | 7.76 s | 32.9% |
| CC(Cc1c[nH]cn1)N/C(=N\C#N)NC[C@H](Cc1ccccc1)N(C)C (stereo partly specified) | -14.4% | -0.1% | -0.5% | 2.2% | inactive | 11.38 s | 0.8% |
| CC(Cc1ccsc1)N/C(=N\C#N)NC[C@H](Cc1ccccc1)N(C)C (stereo partly specified) | -0.8% | -0.6% | -1% | 1.9% | inactive | 22.76 s | 9.1% |
| COc1ccccc1N/C(=N\C#N)NC[C@H](Cc1ccccc1)N(C)C | 9.5% | 2% | -0.8% | 15.2% | inactive | 7.34 s | 36.9% |
| CN(C)[C@H](CN/C(=N/C#N)Nc1ccccc1)Cc1ccccc1 | 2.1% | 1.9% | -0.5% | 15.9% | inactive | 20.94 s | 23.1% |
| COc1cccc(CCN/C(=N\C#N)NC[C@H](Cc2ccccc2)N(C)C)c1 | 3.3% | -0.6% | -1% | 23% | inactive | 12.47 s | 10.3% |
| CC(Cc1ccncc1)N/C(=N\C#N)NC[C@H](Cc1ccccc1)N(C)C (stereo partly specified) | 2.9% | -0.9% | -1.1% | -0.5% | inactive | 12.52 s | 8.6% |
| CC(Cc1ccc[nH]1)N/C(=N\C#N)NC[C@H](Cc1ccccc1)N(C)C (stereo partly specified) | 5.8% | -0.4% | -1% | 7.9% | inactive | 17.58 s | 24.3% |
| CC(Cc1cccnc1)N/C(=N\C#N)NC[C@H](Cc1ccccc1)N(C)C (stereo partly specified) | 9.3% | -0.9% | -1.1% | -0.6% | inactive | 15.75 s | 9.5% |
| COc1ccc2cc(CC(C)N/C(=N\C#N)NC[C@H](Cc3ccccc3)N(C)C)ccc2c1 (stereo partly specified) | 15.2% | -1% | -1% | -1% | inactive | 10.44 s | 23.6% |
| CC(Cc1cc[nH]n1)N/C(=N\C#N)NC[C@H](Cc1ccccc1)N(C)C (stereo partly specified) | -2.5% | -0.7% | -0.4% | -0.6% | inactive | 15.44 s | -15.2% |
| CN1CC[C@]23c4c5ccc(O)c4O[C@H]2[C@@H](O)C=C[C@H]3[C@H]1C5 [MORPHINE] | – | – | – | – | – | 22.79 s | – |
| COc1ccc(CN/C(=N\C#N)NC[C@H](Cc2ccc(O)cc2)N(C)C)cc1 | 18.5% | -0.8% | -1% | -0.9% | inactive | 12.41 s | 19.8% |
| CC(Cc1cccs1)N/C(=N\C#N)NC[C@H](Cc1ccccc1)N(C)C (stereo partly specified) | 12.4% | -0.4% | -0.9% | 2% | inactive | 21.8 s | 37.2% |
| COc1ccc(CN/C(=N\C#N)NC[C@H](Cc2ccccc2)N(C)C)cc1 | 2.9% | -0.6% | -0.9% | 0.9% | inactive | 14.34 s | 14.4% |
| CN(C)[C@H](CN/C(=N/C#N)NCCc1ccccc1)Cc1ccc(O)cc1 | 8.6% | -0.7% | -0.9% | -0.7% | inactive | 6.89 s | 4.1% |
| CN(C)[C@H](CN/C(=N/C#N)NCCc1ccccc1)Cc1ccccc1 | 25.9% | -0.2% | -0.9% | 2% | inactive | 19.93 s | 28% |
| CC(Cc1ccco1)N/C(=N\C#N)NC[C@H](Cc1ccccc1)N(C)C (stereo partly specified) | 9.5% | -1% | -1.3% | -0.8% | inactive | 7.57 s | 15.6% |
| CN(C)[C@H](CN/C(=N/C#N)NCCc1ccc(O)cc1)Cc1ccccc1 | 13.2% | -0.7% | -0.9% | -0.9% | inactive | 6.82 s | 19.3% |
